Test results: US20130071927A1, “MEDIA AND METHODS FOR CELL CULTURE” (Sydney IVF Limited, priority 2010, published 2013)

Experiments:
Type in all cases: cell-based, human
hESC [1] = test: Feeder layer-free monolayer hESC culture on collagen I with protectants/modulators; conditions: for doubling time: collagen I coating + Y-27632 (10 μM), SIVF019 (FIG. 4)
Method: A single cell suspension was prepared similar to Example 4 by first washing a T25 flask with 5 ml PBS followed by trypsinising the cells with 2 ml 0.05% trypsin/5 mM EDTA, incubating at 37° C. for 10 mins and resuspending in 10 ml DMEM medium containing 10% FBS with vigorous pipetting. Cell number and viability was determined using the NucleoCounter and an appropriate number of cells centrifuged at 250×g for 4 mins prior to resuspension in conditioned KSR medium with 20 ng/ml bFGF plus additives. Conditioned KSR medium was produced by incubation of KSR medium on mitomycin-C treated human foetal fibroblasts for 48 hrs prior to harvest and storage at −20° C. As protectants/modulators the following additives were tested: • 1. 10 μM Y-27632 • 2. 20 μM OPH109 • 3. 2.5-10 μM blebbistatin • 4. 20 μM OPH109+2.5-10 μM blebbistatin
Cells were plated in collagen I (Cell Science and Technologies) coated 96 well optical bottom plates (BD) at a density of 2×10^4 cells/cm^2, and incubated at 37° C./5% CO2/5% O2. Media were changed on every 2nd day thereafter. […] This toxic effect could in turn be counteracted by using OPH109 in addition to blebbistatin. After 4-5 days in culture cells were fixed and immunofluorescence stained for the pluripotency markers Oct-3/4, SSEA-4 and Tra-1-81 as well as the early differentiation marker CD29. The cells were imaged and analysed using an IN Cell Analyzer 1000 and IN Cell Developer Toolbox 1.7 software. FIG. 3 summarises the results for 2 cell lines, indicating the ability of protectants/modulators to facilitate feeder-free monolayer culture of undifferentiated hESC. Next, the growth rate of monolayer hESC was assessed by imagining of Hoechst (Invitrogen) stained wells using the IN Cell Analyzer 1000 in 24 hr intervals. Cell number was determined by analysis using IN Cell Developer Toolbox 1.7 and IN Cell Analyzer 1000 Workstation 3.5 software. […] There was no significant difference in cell number or proliferation between uncoated and collagen I coated growth surfaces.

hESC [2] = test: Expansion of single-cell dissociated hESC on feeder cells using protectants in the culture medium
Method: Organ culture dishes with various hESC lines (Table 1) were washed once with 1 ml PBS and then dislodged by adding ˜0.2 ml 0.05% trypsin/5 mM EDTA and incubating at 37° C. for 10 mins. After the incubation 1 ml DMEM medium containing 10% FBS was added to inhibit the trypsin, and a single cell suspension was obtained by vigorous pipetting. The cells were counted, pelleted by centrifugation at 250×g for 4 min and resuspended in 5 ml KSR medium containing 20 ng/ml bFGF and 20 μM OPH109, a potent, cell permeable inhibitor of several caspases. The cell suspension was then transferred to a T25 culture flask containing fresh, mitomycin C treated human embryonic fibroblast feeder layer cells and incubated at 37° C., 5% CO2 and 5% O2. The medium was changed after 2 days (and every 2 days thereafter) using KSR medium plus 4 ng/ml bFGF. […] Over the course of 8-10 days these colonies continued growing in size. In contrast, control cultures set up in the same way but without OPH109 in the initial culture medium only contained very few hESC colonies, in concordance with the reported poor viability of hESC after single cell dissociation.
After 8-10 days the cells were harvested by preparing a single cell suspension using trypsin/EDTA as described above. Table 3 list the numbers of cells obtained for various cell lines, indicating a 10-15 fold expansion in a single step. The cells could be used for subsequent experiments or further expansion by plating 10,000 cells/cm^2 into culture vessels with fresh feeder layer cells using KSR medium plus 20 ng/ml bFGF and 20 μM OPH109 as the initial culture medium.
In another experiment, single cell suspensions were prepared from hESC cells grown in organ culture dishes using trypsin/EDTA as described above. Cell were then resuspended in 5 ml KSR medium containing 20 ng/ml bFGF and 2.5 μM blebbistatin, a potent, cell permeable inhibitor of myosin II. The cell suspension was then transferred to a T25 culture flask containing fresh, mitomycin C treated human embryonic fibroblast feeder layer cells and incubated at 37° C., 5% CO2 and 5% O2. The medium was changed after 2 days (and every 2 days thereafter) using KSR medium plus 4 ng/ml bFGF. […] Colonies continued to grow in size and density over 8-10 days until the cultures were passaged again for cell counting (summarised in Table 4) and replating of 2,000-10,000 cells/cm^2 into culture vessels with fresh feeder layer cells using KSR medium plus 20 ng/ml bFGF and 2.5 μM blebbistatin as the initial culture medium. Using this method cells were expanded for >10 passages, while maintaining their pluripotency and normal karyotypes.

hESC [3] = test: as above; conditions: Y27632 as protectant in the culture medium, on feeders
SIVF019 hESC = test: Feeder free expansion of hESC using monolayer culture; conditions: SIVF019 (collagenase passaged stock), within 9 days, 3 passages, 10 μM Y-27632 at plating, collagen I
Method: Manually passaged and collagenase passaged hESC lines (Table 1) grown on feeder cells were dissociated into single cells using 0.05% trypsin/5 mM EDTA as described in Example 5. Cells were plated into a collagen I coated plates at ˜2×10^4/cm^2 in Conditioned KSR medium with 20 ng/ml bFGF and 10 μM Y-27632, and incubated at 37° C./5% CO2/5% O2 (passage 1). The medium was changed the following day, then every 2nd day until cells reached ˜80% confluency. Cells were then dissociated into single cells using the 0.05% trypsin/5 mM EDTA protocol, with the exception of incubation with 0.05% trypsin/5 mM EDTA for 3 mins only, counted and plated at ˜2×10^4/cm^2 in the above described medium (passage 2). This process was repeated when cells reached confluency (passage 3). At each of the 3 passages, some of the dissociated cells were plated into 96 well plates for pluripotency assessment as described in Example 6. Within 9 days, the theoretical cell number obtained for SIVF019 (collagenase passaged stock) was 24 fold that originally plated (FIG. 6A). Manually passaged hESC SIVF002, SIVF006 and SIVF021 could also be successfully expanded as a monolayer (FIG. 6B).

Compound: CC(C)[C@H](NC(=O)c1ccc2ccccc2n1)C(=O)N[C@@H](CC(=O)O)C(=O)COc1c(F)cccc1F [OPH109, Quinoline-Val-Asp-Difluorophenoxymethylketone]
- cell morphology in feeder-free culture (hESC [1]; 20 μM OPH109 by itself, collagen I coated 96 well plates): changed to larger cytoplasm/nuclear ratios indicating cell differentiation
- number of passages cell lines were maintained (typical morphology, pluripotency markers, stable karyotype kept) (hESC [2]; 20 μM OPH109 in initial culture medium, 10,000 cells/cm^2): > 10 passages
- expansion per passage (hESC [2]; 20 μM OPH109 in initial culture medium, >10 passages): 10-15 fold
- random images (10x objective) in which colonies were observed (hESC [2]; 20 μM OPH109 in initial culture medium, control without OPH109 1 out of 10): 6 out of the 10
- Viable cells after 1 expansion step (hESC [2]; SIVF006, 20 μM OPH109, from 1.23 × 10^5 cells in organ culture dish to T25 flask, 8-10 days): 1.97 × 10^6 cells
- Viable cells after 1 expansion step (hESC [2]; SIVF019, 20 μM OPH109, starting cells not determined, T25 flask, 8-10 days): 3.1 × 10^6 cells
- Viable cells after 1 expansion step (hESC [2]; SIVF021, 20 μM OPH109, from 2.19 × 10^5 cells in organ culture dish to T25 flask, 8-10 days): 3.00 × 10^6 cells
- Viable cells after 1 expansion step (hESC [2]; SIVF022, 20 μM OPH109, from 3.99 × 10^5 cells in organ culture dish to T25 flask, 8-10 days): 4.40 × 10^6 cells
- expansion in a single step (hESC [2]; various cell lines, 20 μM OPH109, 8-10 days): 10-15 fold

Compound: C[C@@H](N)[C@H]1CC[C@H](C(=O)Nc2ccncc2)CC1 [Y-27632]
- doubling time (hESC [1]; between 24 hrs and 48 hrs post-plating): 11 h
- doubling time (hESC [1]; between 48 hrs and 72 hrs post-plating): 17 h
- morphology of the colonies (hESC [3]): flat monolayers of small cells with high nuclear to cytoplasmic ratios
- theoretical cell number relative to that originally plated (SIVF019 hESC): 24 fold
- cell viability after dissociation into single cell suspensions (hESC [2]; Y27632 as protectant in the culture medium, on feeders): dramatically increased cell viability

Compound: Cc1ccc2c(c1)C(=O)C1(O)CCN(c3ccccc3)C1=N2 (stereo not drawn) [blebbistatin]
- toxicity (hESC [1]; blebbistatin 2.5-10 μM, feeder-free on collagen I): increased toxicity at higher concentrations
- concentration at which most potent as protectant/modulator (hESC [1]; tested 2.5-10 μM, feeder-free on collagen I): 2.5 µM
- number of passages cells were expanded (pluripotency and normal karyotypes maintained) (hESC [2]; 2.5 μM blebbistatin in initial culture medium, 2,000-10,000 cells/cm^2): > 10 passages
- Viable cells after 1 expansion step (hESC [2]; SIVF002, 2.5 μM blebbistatin, from 5.7 × 10^4 cells in organ culture dish to T25 flask): 1.5 × 10^6 cells
- Viable cells after 1 expansion step (hESC [2]; SIVF019 Exp 1, 2.5 μM blebbistatin, from 6.6 × 10^4 cells in organ culture dish): 3.4 × 10^6 cells
- Viable cells after 1 expansion step (hESC [2]; SIVF019 Exp 2, 2.5 μM blebbistatin, from 2.5 × 10^5 cells in organ culture dish): 2.4 × 10^6 cells
- Viable cells after 1 expansion step (hESC [2]; SIVF019 Exp 3, 2.5 μM blebbistatin, from 2.5 × 10^5 cells in organ culture dish): 3.4 × 10^6 cells
- Viable cells after 1 expansion step (hESC [2]; SIVF024, 2.5 μM blebbistatin, from 2.6 × 10^5 cells in organ culture dish): 1.6 × 10^6 cells
- Viable cells after 1 expansion step (hESC [2]; SIVF048, 2.5 μM blebbistatin, from 2.3 × 10^5 cells in organ culture dish): 2.0 × 10^6 cells
- protectant strength compared with OPH109 (hESC [2]; allows lower initial plating densities and greater expansion): more powerful protectant than OPH109
